Laboratory results taken from the METLIN SMRT retention time set (Domingo-Almenara et al. 2019).

Assay: gradient 5% acetonitrile 3 min, to 50% in 2 min, to 85% in 15 min, held 3 min, 100 µL/min
Conditions: column: Zorbax Extend-C18 2.1 x 50 mm; eluents: water / acetonitrile, 0.1% formic acid
Summary of the method: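 Retention times of pure standards were taken from adduct peaks that were selected by computer and manually inspected. Over 3 months, mixtures of ~100 molecules were run by HPLC–quadrupole time-of-flight mass spectrometry in positive and negative ionization mode. The Zorbax Extend-C18 column (2.1 × 50 mm, 1.8 μm) ran at 100 μL/min in water and acetonitrile, each containing 0.1% formic acid, with 40 μL dead volume and 900 μL dwell volume.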

RP-LC retention time [s]	Compound
599	Cn1c(CC2CCN(C(=O)C3CC(=O)N(C4CCCCCC4)C3)C2)nc2cccnc21 (stereo not drawn)
702	CCCNC(=O)Nc1ccc(NC(=O)N2CCCC(C(=O)NC3CCCCC3)C2)cc1 (stereo not drawn)
761	CCOC(=O)Cn1c(C2CC(=O)N(c3ccccc3Cl)C2)nc2ccccc21 (stereo not drawn)
808	CCn1cc(C(=O)Nc2cccc(C(C)=O)c2)c2nn(-c3ccccc3)c(=O)c-2c1
1040	Cc1ccc(CN2C(=O)CN(S(=O)(=O)c3ccccc3)CC2(C)C(=O)NCCC(C)C)cc1 (stereo not drawn)
970	COc1ccc(-c2noc(C3CC(=O)N(c4cc(C)cc(C)c4)C3)n2)c(OC)c1 (stereo not drawn)
1100	C=CCn1c(=O)c2ccccc2n(Cc2nc(-c3cccc(OCC)c3)no2)c1=O
1000	Cc1ccc(S(=O)(=O)n2nc(-c3ccc(C)c(C)c3)nc2N)cc1
1050	O=c1c2cc(-c3ccc(F)cc3)nn2ccn1Cc1noc(CN2CCc3ccccc32)n1
800	CCn1cnc(S(=O)(=O)N2CCCC(C(=O)Nc3ccc(C)c(C)c3)C2)c1 (stereo not drawn)
1020	Cc1ccc(NS(=O)(=O)c2ccc(-c3c(C)noc3C)cc2)c(Br)c1
736	O=C(Cc1c[nH]c2ncccc12)NC1CCN(Cc2ccccc2)CC1
588	Cc1noc(C)c1S(=O)(=O)N1CC(c2nc(Cc3cccnc3)no2)C1
639	COc1ccccc1C(CNC(=O)c1cc(=O)c2ccc(C)c(C)c2o1)N(C)C (stereo not drawn)
596	Cc1cc(N2CCN(C(=O)Cc3ccc(F)cc3)CC2)nc2nncn12
609	Cn1nc(CNC(=O)c2n[nH]c(=O)c3ccccc23)c2c1CCN(S(C)(=O)=O)C2
826	CCOC(=O)c1c(C)oc2nc(C)nc(NCCCN3CCN(c4ccccc4)CC3)c12
652	COC[C@@H]1CN(S(=O)(=O)c2cccnc2)C[C@H]1c1ccncc1
1200	COc1ccc(N2CCN(c3cc(SCC(=O)Nc4ccc(C)cc4Cl)ncn3)CC2)cc1
762	CC(C)n1c(=O)sc2cc(S(=O)(=O)N3CCC(C(=O)NCC4CCCO4)CC3)ccc21 (stereo not drawn)
686	CC(COc1ccccc1)NC(C)C(O)c1ccc(O)cc1 (stereo not drawn)
807	Cc1cc(C)cc(NS(=O)(=O)c2cc(-c3[nH]ncc3C(=O)N3CCCCC3)oc2C)c1

RP-LC retention time [s]	Compound
752	Cc1nn(C2CCS(=O)(=O)C2)c(C)c1N1CCN(S(=O)(=O)c2cccs2)CC1 (stereo not drawn)
838	CC(NC(=O)C1CCCN(C(=O)c2cc3sccc3n2C)C1)c1ccc2c(c1)OCCO2 (stereo not drawn)
1030	O=S(=O)(c1ccc(-c2noc(-c3ccccc3F)n2)cc1)N1CCOCC1
687	COc1ccc(S(=O)(=O)Nc2cc(-c3cn4ccc(C)cc4n3)ccc2C)cc1C
589	CC1(O)CCOC2(CCN(Cc3cccc4[nH]ccc34)CC2)C1 (stereo not drawn)
759	Cn1nccc1C(=O)NCc1ccc2c(c1)CCN2C(=O)c1ccccc1
942	Cc1ccc(C2=NN3C(C2)c2ccccc2OC32CCCC2)o1 (stereo not drawn)
1080	Cc1nc(C)c(C(=O)N2CCC(Oc3ccc(-c4noc(-c5ccccc5)n4)cc3)C2)s1 (stereo not drawn)
642	Cc1nnc2cc(N3CCN(S(=O)(=O)c4ccc(C#N)cc4)CC3)cnn12
597	O=S(=O)(c1ccc(Cl)cc1)c1nc(-c2ccco2)oc1NCCCn1ccnc1
1050	Cc1ccc(C)c(NC(=O)Cn2cnc3c(sc4nc(-c5ccccc5)ccc43)c2=O)c1
1060	Cc1cc(C)n(-c2nc(C)c(C(=O)Nc3ccc(F)cc3)s2)n1
721	COc1ccc(C(=O)Nc2cc(-c3cccnc3)no2)cc1
1030	CC1(C)CC(=O)c2cn(-c3ccccc3)c(=O)c(C(=O)Nc3cc(F)ccc3F)c2C1
717	CCC(=O)NCc1nc(-c2ccccc2Cl)no1
897	CCc1ccc(-n2nc(CO)c(C(=O)NC3CC3)n2)cc1
1090	Cc1oc(-c2ccccc2)nc1Cc1noc(COc2ccccc2)n1
689	O=C(NC1CCN(c2cc(-c3ccc(F)cc3)[nH]n2)C1)c1ccc2[nH]ccc2c1 (stereo not drawn)
999	CCOC(=O)C1CCN(c2cc3c(cc2NC(=O)CCC2CCCC2)n(C)c(=O)c(=O)n3C)CC1
931	Cc1ccc(N2CCC(NC(=O)c3cccc(N(C)C)c3)C2=O)cc1 (stereo not drawn)
672	CCn1nc(C)c(CCNC(=O)Nc2ccccc2C(F)(F)F)c1C
970	CCc1cc(C(=O)Nc2ccc(OC)cc2C)nc2ccnn12

RP-LC retention time [s]	Compound
828	Cc1ccc(CNC(=O)N2CCc3c(c(-c4nc(C5CC5)no4)nn3C)C2)cc1
858	CCn1cc(C2=CCN(C(=O)NCc3ccc(OC)cc3)CC2)c2cccnc21
620	CCCNC(=O)C1CCCN(c2ccc(SCC(=O)Nc3ccccc3F)nn2)C1 (stereo not drawn)
755	COCc1cc(=O)n(CC(=O)Nc2ccc(OC)cc2)c(N2CCOCC2)n1
1110	C=CCn1c(=O)c2ccccc2n(Cc2nc(-c3cccc(Cl)c3)no2)c1=O
744	CCC1(O)CCC12CCN(C(=O)CC(C)C)CC2 (stereo not drawn)
698	Cc1ccc(N2CCN(CC(O)COc3ccccc3)CC2)cc1 (stereo not drawn)
988	Cc1cc(S(=O)(=O)N2CCc3c(c(-c4nnc(-c5ccccc5F)o4)nn3C)C2)ccc1F
694	CCn1cc(C)c(C(=O)O)c1CC(=O)N1CCCCC1
1110	CCOc1ccccc1NC(=O)Cn1cnc2c(sc3nc(-c4ccccc4)ccc32)c1=O
941	CN(c1nc(-c2ccc(Cl)cc2)nc2ccccc12)C1CCCCC1
709	Cc1c(F)cccc1NC(=O)N1CCCC(Cn2cnc3cccnc32)C1 (stereo not drawn)
875	O=c1cc(-c2cc3c(ccc4ccccc43)oc2=O)c2ccc(O)cc2o1
588	CCn1cc(C)c(C(=O)O)c1CC(=O)NCCCN1CCOCC1
1010	Cc1csc(-c2cc(S(=O)(=O)NC3CCCCC3)cn2CC(=O)N2CCCCC2)n1
629	NC(=O)C1CCN([C@H]2CS(=O)(=O)C[C@@H]2S(=O)(=O)c2ccc(F)cc2)CC1
575	CCN1CCN(c2ncc3c(n2)CC(C)CC3=O)CC1 (stereo not drawn)
740	O=C(C1CC(=O)N(C2CCCCCC2)C1)N1CCCN(c2ccc(=O)n(-c3ccccc3)n2)CC1 (stereo not drawn)
962	Cc1ccc(Nc2c(-c3ccc(N(C)C)cc3)nc3cnccn23)c(C)c1
964	COc1ccc(C2C(=O)N(CCc3ccccc3)CC(=O)N2Cc2cccs2)cc1 (stereo not drawn)
804	COc1ccc(C)cc1NS(=O)(=O)c1cc(-c2c(C)noc2NC(C)=O)ccc1C
1180	CCc1nc(-c2csc(S(=O)(=O)N3CCC(C(=O)Nc4ccc(Cl)cc4C)CC3)c2)no1

RP-LC retention time [s]	Compound
636	COCCn1nc2n(c1=O)CCN(C(=O)c1ccc(Br)o1)CC2
822	O=S(=O)(Cc1ccccc1)N1CCC(c2noc(-c3cccnc3)n2)C1 (stereo not drawn)
707	CC(=O)N1CCc2cc(N3CC(C(=O)NCc4ccccc4C)CC3=O)ccc21 (stereo not drawn)
740	Cc1nnsc1C(=O)Nc1nnc(Cc2ccc3c(c2)OCO3)o1
677	Cc1ccc(-c2ccc(=O)n(Cc3noc(C(=O)NCCN4CCC(C)CC4)n3)n2)cc1
618	O=C(C1=NNc2ccccc2S1(=O)=O)N1CCOCC1
976	COc1ccccc1CC1C(=O)Nc2ccc(Br)cc21 (stereo not drawn)
852	O=C(c1ccc(Br)o1)N1CCCC(c2nnc(-c3ccccc3)o2)C1 (stereo not drawn)
787	CCc1nc(-c2cc(S(=O)(=O)NCC(=O)N3CCCC3)c(C)s2)no1
783	CCOc1ccccc1NS(=O)(=O)c1ccc2c(c1)CCCC(=O)N2
669	COc1cccc(-c2ccc3nc(N4CCC(C(=O)NCCN(C)C)CC4)sc3n2)c1
801	CCn1c(=O)oc2cc(-c3noc(CNC(=O)c4ccccc4)n3)ccc21
658	Cc1cc(N(C)C)nc(N2CCN(C(=O)c3ccc(Br)cc3)CC2)n1
662	COC(=O)c1scc(-c2ccccc2)c1S(=O)(=O)N1CCC(C(N)=O)(N2CCCCC2)CC1
596	CCOc1ccc(CN2CCN(C(=O)c3ccc(C#N)cc3)CC2)cn1
1150	C/C(=C\C(=O)Nc1ccccc1C(=O)O)c1ccc2ccccc2c1
845	COc1ccc(-c2nc3c4cnn(-c5ccccc5Cl)c4ncn3n2)cc1OC
1090	CCN(CC)S(=O)(=O)c1ccc(F)c(-c2nnc(-c3ccccc3Br)o2)c1
874	CCc1ccc(C2=C(C)C(N3CCCN(C(=O)CC(C)C)CC3)=NS2(=O)=O)cc1
642	CCn1nc(N2CCCC(NS(=O)(=O)c3c(C)nn(C)c3C)C2)ccc1=O (stereo not drawn)
630	O=C(Nc1ccc2cn[nH]c2c1)C1CN(c2nc3ccccc3s2)C1

Compound	RP-LC retention time [s]
COc1ccc(-c2cn3c(CC(=O)N4CCN(C5CCCCC5)CC4)csc3n2)cc1OC	594
